According to article PMC10653547, “Synergistic effect of two antimicrobial peptides, BP203 and MAP-0403 J-2 with conventional antibiotics against colistin-resistant Escherichia coli and Klebsiella pneumoniae clinical isolates” (PLOS ONE, 2023):
Like-named read-outs stand apart in the source and are kept apart here. No end group written: not given here.

Tests used:
E. coli ATCC 25922 [1] = test system: E. coli ATCC 25922
Method: (§1) The MICs of BP203 and MAP-0403 J-2 against clinically colistin-resistant E. coli and K. pneumoniae isolates were determined using the broth microdilution method, according to CLSI recommendations. Briefly, the peptides were subjected to serial dilution in cation-adjusted Mueller-Hinton broth (CAMHB) and added to a 96-well microtiter plate (Wuxi NEST Biotechnology, Wuxi, China). Subsequently, bacterial suspensions from freshly mid-log phase cultures were diluted to 10^6 CFU/mL with CAMHB, and introduced to each well containing the peptides.
(§2) The antibacterial activity of BP203 and MAP-0403 J-2 was evaluated concerning their response to temperature, pH, serum, and salt ions using the MIC assay, following the previously mentioned procedure. The MIC values of peptides were determined against E. coli ATCC29522 and K. pneumoniae ATCC BAA-1706. […] For the pH stability assay, both peptides were incubated in buffers with different pH values (100 mM buffers: glycine-HCl buffer (pH 2.0), sodium acetate buffer (pH 4.0), sodium phosphate buffer (pH 6.0), Tris-HCl buffer (pH 8.0), and glycine-NaOH buffer (pH 10.0)) for 1 h at 37°C. […] For serum stability assay, both peptides were exposed to 25% and 50% fetal bovine serum (FBS) for 1 h at 37°C, followed by a heat activation step for 30 min at 60°C. Afterward, the peptide solutions were serially diluted and MIC was subsequently determined. For the salt stability assay, each peptide was treated in MHB supplemented with different salts at their physiological concentrations; NaCl (100, 150, and 200 mM), MgCl2 (0.5, 1 and 2 mM), and FeCl3 (1, 4 and 8 mM). The serial dilutions of peptides were incubated with tested strains for MIC testing. The MICs were observed after 20–24 h of incubation at 37°C.

[2] = test system: K. pneumoniae ATCC BAA-1706
Method: as §1, §2

E. coli ATCC 25922 [3] = test system: E. coli ATCC 25922; remark: listed apart in the source
Method: as §1
as §2, with “For the salt stability assay, each peptide was treated in MHB supplemented with different salts at their physiological concentrations; NaCl (100, 150, and 200 mM), MgCl2 (0.5, 1 and 2 mM), and FeCl3 (1, 4 and 8 mM).” left out

[4] = test system: K. pneumoniae ATCC BAA-1706; remark: listed apart in the source
Method: as §1
as §2, with “For the salt stability assay, each peptide was treated in MHB supplemented with different salts at their physiological concentrations; NaCl (100, 150, and 200 mM), MgCl2 (0.5, 1 and 2 mM), and FeCl3 (1, 4 and 8 mM).” left out

[5] = 25% fetal bovine serum, 1 h at 37 °C
[6] = 50% fetal bovine serum, 1 h at 37 °C
[7] = pH 2, 100 mM glycine-HCl buffer, 1 h at 37 °C, neutralized
[8] = pH 4, 100 mM sodium acetate buffer, 1 h at 37 °C, neutralized
[9] = pH 6, 100 mM sodium phosphate buffer, 1 h at 37 °C, neutralized
[10] = pH 8, 100 mM Tris-HCl buffer, 1 h at 37 °C, neutralized
[11] = pH 10, 100 mM glycine-NaOH buffer, 1 h at 37 °C, neutralized
[12] = peptide incubated 1 h at 25 °C (control)

CC[C@H](C)[C@H](NC(=O)[C@H](CCCCN)NC(=O)[C@H](CCCCN)NC(=O)[C@H](Cc1ccccc1)NC(=O)[C@H](CC(C)C)NC(=O)[C@H](CCCCN)NC(=O)[C@@H](N)CCCCN)C(=O)N[C@@H](CC(C)C)C(=O)N[C@@H](CCCNC(=N)N)C(=O)N[C@@H](Cc1ccc(O)cc1)C(=O)N[C@@H](CC(C)C)C(N)=O [BP203]
4 µg/mL: MIC after FBS treatment (E. coli ATCC 25922 [1]; 0% FBS (control)) | MIC after FBS treatment (E. coli ATCC 25922 [1]; [5]) | MIC after temperature treatment (E. coli ATCC 25922 [1]; [12]) | MIC after temperature treatment (E. coli ATCC 25922 [1]; peptide incubated 1 h at 37 °C) | MIC after temperature treatment (E. coli ATCC 25922 [1]; peptide incubated 1 h at 50 °C) | MIC after temperature treatment (E. coli ATCC 25922 [1]; peptide incubated 1 h at 70 °C) | MIC after temperature treatment (E. coli ATCC 25922 [1]; peptide incubated 1 h at 90 °C) | MIC after FBS treatment ([2]; 0% FBS (control)) | MIC after FBS treatment [2, 5] | MIC after FBS treatment [2, 6] | MIC after temperature treatment [2, 12] | MIC after temperature treatment ([2]; peptide incubated 1 h at 37 °C) | MIC after temperature treatment ([2]; peptide incubated 1 h at 50 °C) | MIC after temperature treatment ([2]; peptide incubated 1 h at 70 °C) | MIC after temperature treatment ([2]; peptide incubated 1 h at 90 °C)
16 μg/mL: MIC in the presence of physiological salts (E. coli ATCC 25922 [3]; NaCl 150 mM) | MIC in the presence of physiological salts (E. coli ATCC 25922 [3]; NaCl 200 mM) | MIC in the presence of physiological salts ([4]; NaCl 150 mM) | MIC in the presence of physiological salts ([4]; NaCl 200 mM)
8 µg/mL: MIC after FBS treatment (E. coli ATCC 25922 [1]; [6])
4 μg/mL: MIC after pH treatment (E. coli ATCC 25922 [1]; [7]) | MIC after pH treatment (E. coli ATCC 25922 [1]; [8]) | MIC after pH treatment (E. coli ATCC 25922 [1]; [9]) | MIC after pH treatment (E. coli ATCC 25922 [1]; pH 7 (control)) | MIC after pH treatment (E. coli ATCC 25922 [1]; [10]) | MIC after pH treatment (E. coli ATCC 25922 [1]; [11]) | MIC after pH treatment [2, 7] | MIC after pH treatment [2, 8] | MIC after pH treatment [2, 9] | MIC after pH treatment ([2]; pH 7 (control)) | MIC after pH treatment [2, 10] | MIC after pH treatment [2, 11] | MIC in the presence of physiological salts (E. coli ATCC 25922 [3]; Control, 0) | MIC in the presence of physiological salts (E. coli ATCC 25922 [3]; FeCl3 1 μM) | MIC in the presence of physiological salts (E. coli ATCC 25922 [3]; FeCl3 4 μM) | MIC in the presence of physiological salts (E. coli ATCC 25922 [3]; FeCl3 8 μM) | MIC in the presence of physiological salts (E. coli ATCC 25922 [3]; MgCl2 0.5 mM) | MIC in the presence of physiological salts (E. coli ATCC 25922 [3]; MgCl2 1 mM) | MIC in the presence of physiological salts ([4]; Control, 0) | MIC in the presence of physiological salts ([4]; FeCl3 1 μM) | MIC in the presence of physiological salts ([4]; MgCl2 0.5 mM)
8 μg/mL: MIC in the presence of physiological salts (E. coli ATCC 25922 [3]; MgCl2 2 mM) | MIC in the presence of physiological salts (E. coli ATCC 25922 [3]; NaCl 100 mM) | MIC in the presence of physiological salts ([4]; FeCl3 4 μM) | MIC in the presence of physiological salts ([4]; FeCl3 8 μM) | MIC in the presence of physiological salts ([4]; MgCl2 1 mM) | MIC in the presence of physiological salts ([4]; MgCl2 2 mM) | MIC in the presence of physiological salts ([4]; NaCl 100 mM)

KWLRRPWRRWR-NH2 [MAP-0403 J-2]
16 μg/mL: MIC after pH treatment (E. coli ATCC 25922 [1]; [7]) | MIC after pH treatment (E. coli ATCC 25922 [1]; [8]) | MIC after pH treatment (E. coli ATCC 25922 [1]; [9]) | MIC after pH treatment (E. coli ATCC 25922 [1]; pH 7 (control)) | MIC after pH treatment (E. coli ATCC 25922 [1]; [10]) | MIC after pH treatment (E. coli ATCC 25922 [1]; [11]) | MIC after pH treatment [2, 7] | MIC after pH treatment [2, 8] | MIC after pH treatment [2, 9] | MIC after pH treatment ([2]; pH 7 (control)) | MIC after pH treatment [2, 10] | MIC after pH treatment [2, 11] | MIC in the presence of physiological salts (E. coli ATCC 25922 [3]; Control, 0) | MIC in the presence of physiological salts (E. coli ATCC 25922 [3]; FeCl3 1 μM) | MIC in the presence of physiological salts (E. coli ATCC 25922 [3]; FeCl3 4 μM) | MIC in the presence of physiological salts (E. coli ATCC 25922 [3]; FeCl3 8 μM) | MIC in the presence of physiological salts (E. coli ATCC 25922 [3]; MgCl2 0.5 mM) | MIC in the presence of physiological salts (E. coli ATCC 25922 [3]; MgCl2 1 mM) | MIC in the presence of physiological salts (E. coli ATCC 25922 [3]; MgCl2 2 mM) | MIC in the presence of physiological salts ([4]; Control, 0) | MIC in the presence of physiological salts ([4]; FeCl3 1 μM) | MIC in the presence of physiological salts ([4]; FeCl3 4 μM) | MIC in the presence of physiological salts ([4]; MgCl2 0.5 mM) | MIC in the presence of physiological salts ([4]; MgCl2 1 mM) | MIC in the presence of physiological salts ([4]; MgCl2 2 mM)
32 µg/mL: MIC after FBS treatment (E. coli ATCC 25922 [1]; [6])
16 µg/mL: MIC after FBS treatment (E. coli ATCC 25922 [1]; 0% FBS (control)) | MIC after FBS treatment (E. coli ATCC 25922 [1]; [5]) | MIC after temperature treatment (E. coli ATCC 25922 [1]; [12]) | MIC after temperature treatment (E. coli ATCC 25922 [1]; peptide incubated 1 h at 37 °C) | MIC after temperature treatment (E. coli ATCC 25922 [1]; peptide incubated 1 h at 50 °C) | MIC after temperature treatment (E. coli ATCC 25922 [1]; peptide incubated 1 h at 70 °C) | MIC after temperature treatment (E. coli ATCC 25922 [1]; peptide incubated 1 h at 90 °C) | MIC after FBS treatment ([2]; 0% FBS (control)) | MIC after FBS treatment [2, 5] | MIC after FBS treatment [2, 6] | MIC after temperature treatment [2, 12] | MIC after temperature treatment ([2]; peptide incubated 1 h at 37 °C) | MIC after temperature treatment ([2]; peptide incubated 1 h at 50 °C) | MIC after temperature treatment ([2]; peptide incubated 1 h at 70 °C) | MIC after temperature treatment ([2]; peptide incubated 1 h at 90 °C)
32 μg/mL: MIC in the presence of physiological salts (E. coli ATCC 25922 [3]; NaCl 100 mM) | MIC in the presence of physiological salts ([4]; FeCl3 8 μM) | MIC in the presence of physiological salts ([4]; NaCl 100 mM)
64 μg/mL: MIC in the presence of physiological salts (E. coli ATCC 25922 [3]; NaCl 150 mM) | MIC in the presence of physiological salts (E. coli ATCC 25922 [3]; NaCl 200 mM) | MIC in the presence of physiological salts ([4]; NaCl 150 mM) | MIC in the presence of physiological salts ([4]; NaCl 200 mM)
